Laboratory results published in patent US6306911A, “Substituted amino acids as neutral sphingomyelinase inhibitors” (Ortho-McNeil Pharmaceutical, Inc., priority 2000, dated 2001).

These compounds were tested on neutral sphingomyelinase (assay: Sphingomyelinase Assay: neutral sphingomyelinase inhibition, release of 14C-phosphocholine from 14C-sphingomyelin, U937 cell lysate). Details: U937 cell lysate as enzyme, 14C-sphingomyelin substrate, pH 7.5, 1 hour at 37.
Type: biochemical
Description: Neutral sphingomyelinase is an enzyme that cleaves sphingomyelin to yield ceramide and phosphocholine. […] After cleavage, an extraction separates the labeled, water-soluble phosphocholine from the intact substrate and the ceramide.
Cell Iysates are made by nitrogen cavitation of harvested cells in Buffer A (20 mM Tris, pH 7.4, 250 mM sucrose, 10 mM EGTA, 10 ug/ml leupeptin, 1 mM PMSF, […]). Lysates are flash frozen and stored at -40 C.
Substrate Preparation: N-methyl-^14 C-sphingomyelin (specific activity 50 mCi/mM) and phosphatidylinositol are evaporated under a stream of nitrogen and resuspended at an equimolar concentration of 0.1 mM in water with 0.5% Triton X-100. The solution is vortexed for 30 minutes and then sonicated for 30 minutes.
Sphingomyelinase Assay: The reaction mixture contains 25 ul 2X Tris Mg buffer (200 mM Tris-HCl, pH 7.5. 160 mM MgCl), 10 ul ^14 C-sphingomyelin substrate, 10 ul lysate (enzyme) and 5 ul test compound or vehicle for a final volume of 50 l. The assays are carried out in 1.5 ml microcentriftige tubes and are incubated for 1 hour at 37. The reaction is stopped with 30 l of water and 175 l chloroform/methanol (2:1, v:v). The tubes arc vortexed vigorously, centrifuged for 5 minutes in a microfuge at maximum speed and 50 l of the upper, aqueous phase is counted in a liquid scintillation counter. Alternatively, the assay may be set up in wells of a 96-well PCR plate in identical proporations to a total volume of 50 l. Then the plates are incubated at 37 C incubator for 1 hour. H2 O (30 l) is added to all plates and the plates are again incubated for 1 hour. Chloroform-methanol (2:1) is added in a volume of 175 l followed by vigorous mixing. The plates are sealed with adhesive covers and centrifuged at 3000 rpm for 10 minutes at 5 C. The plates are uncovered and 50 µl of upper, aqueous phase is transferred to a Flashplate™(NEN) scintillation proximity assay plate. The Flashplates are dried overnight, sealed, and counted using a Topcount scintillation counter.
Compounds that are antagonists of neutral sphingomyelinase are reported as a positive value for inhibition in Table 4.

SMILES	IC50 [µM]
COC(=O)[C@H](CO)[N+](C)(C/C=C/c1cccc2ccccc12)C/C=C/c1cccc2ccccc12 [Compound 14]	19
CC(C(=O)OC(C)(C)C)[N+](C)(CC=Cc1cccc2ccccc12)CC=Cc1cccc2ccccc12 (centres unmarked) [Compound 15]	28
C[C@@H](C(=O)O)N(CC#Cc1cccc2ccccc12)CC#Cc1cccc2ccccc12 [Compound 17, Alanine, N,N-Bis[3-(1-naphthalenyl)-2-propynyl]--]	10
O=C(O)C(CO)N(CCCc1cccc2ccccc12)CCCc1cccc2ccccc12 (centres unmarked) [Compound 23]	89

Same assay, conditions: highest concentration tested (100 uM); IC50 not determined; U937 cell lysate, 1 hour at 37

SMILES	percentage of enzyme inhibition [%]
C[C@@H](O)[C@@H](C(=O)O)N(C/C=C/c1cccc2ccccc12)C/C=C/c1cccc2ccccc12 [Compound 10]	21
C[C@@H](C(=O)O)N(C/C=C/c1ccnc2ccccc12)C/C=C/c1ccnc2ccccc12 [Compound 13]	< 5
C[N+](C/C=C/c1cccc2ccccc12)(C/C=C/c1cccc2ccccc12)[C@@H](CO)C(=O)O [Compound 16]	24
O=C(O)C(CO)N(CC#Cc1cccc2ccccc12)CC#Cc1cccc2ccccc12 (centres unmarked) [Compound 18]	< 5
COc1ccc(C#CCN(CC#Cc2ccc(OC)cc2)[C@@H](C)C(=O)O)cc1 [Compound 19]	27
CC(C(=O)O)N(Cc1cccc2ccccc12)Cc1cccc2ccccc12 (centres unmarked) [Compound 20]	< 5
O=C(O)C(CO)N(Cc1cccc2ccccc12)Cc1cccc2ccccc12 (centres unmarked) [Compound 21]	< 5
O=C(O)C(CO)N(CCc1cccc2ccccc12)CCc1cccc2ccccc12 (centres unmarked) [Compound 22]	< 5
CC(C(=O)OC(C)(C)C)N(CC=Cc1ccnc2ccccc12)CC=Cc1ccnc2ccccc12 (centres unmarked) [Compound 24]	< 5
CC(C(=O)O)N(CCc1cccc2ccccc12)CCc1cccc2ccccc12 (centres unmarked) [Compound 25]	< 5
